Reference: US12389911B2, “Benzimidazole compound or salt thereof, agricultural and horticultural insecticidal and acaricidal agent containing said compound, and method for using same” (NIHON NOHYAKU CO., LTD., priority 2019, dated 2025)

Legend:
Type in all cases: in vivo
[1] = system: Diamondback moth (Plutella xylostella); test: Insecticidal test on diamondback moth (dip of Chinese cabbage seedlings with laid eggs); details: 500 ppm, seedlings with laid eggs dipped about 30 seconds, 25° C., 6 days after dip treatment
From the text: Insecticidal Test on Diamondback Moth (Plutella xylostella)
Adults of diamondback moth were released onto Chinese cabbage seedlings and allowed to lay eggs thereon. At 2 days after the release of the adults, the Chinese cabbage seedlings with laid eggs were dipped for about 30 seconds in agrochemical dispersions diluted to 500 ppm, each of which contained a different benzimidazole compound represented by the general formula (1) of the present invention or salt thereof as an active ingredient. After air-dried, the seedlings were kept in a thermostatic chamber at 25° C. At 6 days after the dip treatment, the number of hatched larvae per plot was counted, the corrected mortality rate was calculated according to the formula shown below, and the insecticidal efficacy was evaluated according to the criteria of Test Example 2. This test was conducted in triplicate using 10 adults of diamondback moth per plot. Corrected mortality rate (%)=(Number of hatched larvae in a non-treatment plot−Number of hatched larvae in a treatment plot)/(Number of hatched larvae in a non-treatment plot)×100 [Expression 3]

[2] = system: Two-spotted spider mite (Tetranychus urticae); test: Acaricidal action on two-spotted spider mite (kidney bean leaf disk spray); details: 500 ppm, adult females, 25° C., two days after treatment
In short: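 Kidney bean leaf disks (2 cm) carrying adult female T. urticae were sprayed with compound dispersion at 500 ppm and held at 25 °C. Dead mites counted 2 days later and corrected mortality calculated against untreated plots; 10 adults per plot, in duplicate.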

[3] = system: Small brown planthopper (Laodelphax striatellus); test: Insecticidal test on small brown planthopper (rice seedling dip); details: 500 ppm, rice seedlings dipped 30 seconds, ten 3rd-instar larvae, 8 days after inoculation
From the text: Insecticidal Test on Small Brown Planthopper (Laodelphax striatellus)
The benzimidazole compounds represented by the general formula (1) of the present invention or salts thereof were separately dispersed in water and diluted to 500 ppm. Rice plant seedlings (variety: Nihonbare) were dipped in the agrochemical dispersions for 30 seconds. After air-dried, each seedling was put into a separate glass test tube and inoculated with ten 3rd-instar larvae of small brown planthopper, and then the glass test tubes were capped with cotton plugs. At 8 days after the inoculation, survival rates were calculated from the numbers of surviving larvae and dead larvae, the corrected mortality rate was calculated according to the formula shown below, and the insecticidal efficacy was evaluated according to the criteria shown below. Corrected mortality rate (%)=(Survival rate in a non-treatment plot−Survival rate in a treatment plot)/(Survival rate in a non-treatment plot)×100 [Expression 2] Criteria: • A: the corrected mortality rate is 100%. • B: the corrected mortality rate is 90 to 99%. • C: the corrected mortality rate is 80 to 89%. • D: the corrected mortality rate is 50 to 79%.

SMILES | insecticidal efficacy (corrected mortality rate), activity level [1] | acaricidal efficacy (corrected mortality rate), activity level [2] | insecticidal efficacy (corrected mortality rate), activity level [3]
CCS(=O)(=O)n1c(-n2ccc(OCC(F)(F)C(F)(F)F)n2)nc2ccccc21 [Compound 2-38] | D or higher | D or higher | –
CCS(=O)(=O)n1c(-n2cnc(CCc3ccc(C(F)(F)F)cc3)c2)nc2ccccc21 [Compound 1-11] | D or higher | D or higher | –
CCS(=O)(=O)n1c(-n2cc(CCc3ccccc3)c(C(F)(F)F)n2)nc2ccccc21 [Compound 2-23] | D or higher | D or higher | –
CCS(=O)(=O)n1c(-n2cc(CCc3ccccc3)cn2)nc2ccccc21 [Compound 2-3] | D or higher | D or higher | –
CCS(=O)(=O)n1c(-n2nc(C(F)(F)F)cc2C)nc2ccccc21 [Compound 2-17] | – | D or higher | D or higher
CCS(=O)(=O)n1c(-n2cc(C(=O)Oc3c(C)cccc3C)c(C(F)(F)F)n2)nc2ccccc21 [Compound 2-29] | – | D or higher | D or higher
CCS(=O)(=O)n1c(-n2cnc(C(F)(C(F)(F)F)C(F)(F)F)c2)nc2ccccc21 [Compound 1-22, 1-ethanesulfonyl-2-(4-heptafluoroisopropylimidazol-1-yl)benzimidazole] | – | D or higher | D or higher
CCc1nn(-c2nc3ccccc3n2S(=O)(=O)CC)cc1C(=O)OC(C)(C)C [Compound 2-49] | D or higher | D or higher | –
